Reference: PMC10402201, “CYP5122A1 encodes an essential sterol C4-methyl oxidase in Leishmania donovani and determines the antileishmanial activity of antifungal azoles” (Research Square, 2023)

How the values were obtained:
CYP51 = target: T1, CYP51 (Leishmania donovani, UniProt A0A3S7WRS7); experiment: UV-Vis difference spectra (type II binding), plus BFC inhibition assay
T1 construct: gene LdCL_110017000; truncated form of XP_003859085.1 without the first 31 amino acids (transmembrane domain), N-terminal solubility tag, C-terminal His-tag
T1 sequence (A0A3S7WRS7 32-480): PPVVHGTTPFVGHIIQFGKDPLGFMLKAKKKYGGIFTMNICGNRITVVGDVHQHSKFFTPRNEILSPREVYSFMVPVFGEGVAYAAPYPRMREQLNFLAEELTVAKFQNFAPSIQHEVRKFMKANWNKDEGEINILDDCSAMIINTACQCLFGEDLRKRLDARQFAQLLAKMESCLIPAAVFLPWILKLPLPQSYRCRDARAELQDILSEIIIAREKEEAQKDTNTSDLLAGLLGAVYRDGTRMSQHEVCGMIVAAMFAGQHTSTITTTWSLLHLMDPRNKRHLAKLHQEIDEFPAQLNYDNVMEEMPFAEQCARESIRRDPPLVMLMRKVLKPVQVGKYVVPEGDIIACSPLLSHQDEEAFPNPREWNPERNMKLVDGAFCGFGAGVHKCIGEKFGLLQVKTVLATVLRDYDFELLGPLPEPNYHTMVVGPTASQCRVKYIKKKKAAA

CYP5122A1 = target: T2, CYP5122A1 (Leishmania donovani, UniProt A0A3S7X0B6); experiment: as above
T2 construct: gene LdCL_270005800; truncated form of XP_003861867.1 without the first 60 amino acids (transmembrane domain), N-terminal solubility tag, C-terminal His-tag
T2 sequence (A0A3S7X0B6 61-592): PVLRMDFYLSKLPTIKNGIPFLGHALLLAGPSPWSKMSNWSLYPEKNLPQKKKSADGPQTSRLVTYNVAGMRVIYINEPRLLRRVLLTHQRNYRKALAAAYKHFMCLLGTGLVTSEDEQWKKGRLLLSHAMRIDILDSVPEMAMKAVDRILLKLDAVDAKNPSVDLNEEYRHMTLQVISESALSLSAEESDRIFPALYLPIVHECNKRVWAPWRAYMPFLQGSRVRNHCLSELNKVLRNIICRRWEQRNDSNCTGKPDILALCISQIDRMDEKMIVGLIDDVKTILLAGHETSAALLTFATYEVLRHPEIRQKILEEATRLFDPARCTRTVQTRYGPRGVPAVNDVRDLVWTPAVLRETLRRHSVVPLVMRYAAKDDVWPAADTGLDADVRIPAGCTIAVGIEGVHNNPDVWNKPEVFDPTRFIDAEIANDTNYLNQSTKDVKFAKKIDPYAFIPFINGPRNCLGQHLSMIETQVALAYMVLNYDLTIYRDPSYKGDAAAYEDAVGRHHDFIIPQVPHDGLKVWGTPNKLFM

Compound | UV-Vis difference spectra (type II binding), plus BFC inhibition assay (CYP51) | UV-Vis difference spectra (type II binding), plus BFC inhibition assay (CYP5122A1)
Clc1ccccc1C(c1ccccc1)(c1ccccc1)n1ccnc1 [clotrimazole] | Clotrimazole exhibited type II binding to both CYP51 and CYP5122A1 | Clotrimazole exhibited type II binding to both CYP51 and CYP5122A1
OC(Cn1cncn1)(Cn1cncn1)c1ccc(F)cc1F [fluconazole] | Fluconazole and voriconazole elicited type II binding with CYP51 but no specific responses with CYP5122A1 | –
C[C@@H](c1ncncc1F)[C@](O)(Cn1cncn1)c1ccc(F)cc1F [voriconazole] | Fluconazole and voriconazole elicited type II binding with CYP51 but no specific responses with CYP5122A1 | –
